From patent publication US12109253B2, “Use of IGFBP7 for treating malaria” (AGENCY FOR SCIENCE, TECHNOLOGY AND RESEARCH, priority 2019, dated 2024)

Legend:
P. falciparum = assay: Rosetting assay (percentage of IRBC that form rosettes), P. falciparum; type: cell-based, Plasmodium falciparum; conditions: for effect on rosetting rates of TSP-1 and VWF without IGFBP7: Albumax-supplemented medium, TSP-1 and VWF present together
Protocol: Rosetting assay was conducted when 70% of the parasite population reached late stages (late trophozoites and schizonts) unless stated otherwise. The parasite culture suspension was stained subvitally with Giemsa (5% stain working concentration) for 20 minutes. Subsequently, 7.6 μl stained suspension was pipetted onto a clean glass slide, immediately covered with a 22×32 mm glass cover slip. The wet mount was examined with light microscope using 1000× magnification. Rosetting rate (percentage of rosetting IRBCs) was defined as the percentage of IRBC (over 200 recruited IRBC) that form rosettes. Experiments were conducted in blinded manner.
Following data review, coupled with critical information (i.e. the protein's subcellular location and cellular functions) from UNIPROT, candidates were shortlisted for further validation. The parasite culture suspensions were incubated with CSMT and antibodies against the shortlisted proteins (see Table 6, items 35, 37, 39-41) and tested in rosetting assay at a final concentration of 25 μg/ml.
The parasite culture suspension was divided into three groups, one served as control, the second group was added with recombinant human IGFBP7 (final concentration 100 ng/ml), and the third group was mixed with CSMT (CSMT:parasite culture=1:3). After one hour of incubation under in vitro cultivation conditions, rosetting assay was conducted. Separately, a portion of the IGFBP7 suspension was heat-denatured at 95° C. for one hour, prior to use in rosetting assay.
Parasite cultures were incubated with IGFBP7 (working concentrations 0-25,000 ng/ml) prior to rosetting assay. Time course experiments were performed with laboratory-adapted P. falciparum lines (3D7, MKK183, FVT402, FVT201, WPP3065) incubated with IGFBP7 (100 ng/ml). Rosetting assay was conducted after five minutes, using 7 μl of the suspension. The remaining suspension was kept back into the incubator. Rosetting assay was repeated at five minute-intervals until one hour-post-IGFBP7 exposure. Reversibility of IGFBP7-mediated rosette-stimulation was also tested. Parasite lines (3D7, MKK183, FVT402, FVT201, WPP3065) were incubated with IGFBP7 (100 ng/ml) and rosetting assay was conducted with 7 μl of the suspension. The remaining suspension was centrifuged at 1500 g for five minutes. Supernatant was removed, and the pellet was washed thrice with culture medium, followed by re-suspension with culture medium. Five minutes later, 7 μl of the suspension was taken for rosetting assay, subsequently repeated at five minute-intervals up to one-hour post-IGFBP7 removal.
Magnetic activated cell sorter (MACS)-sorted late stage-IRBC (purity 95%) were trypsinized at different working concentrations. The first group was mixed with enzyme trypsin (final trypsin concentration of 10 μg/ml), and the second was mixed with enzyme trypsin (final trypsin concentration of 1 mg/ml). The third served as untreated control. The cells were incubated at 37° C. for 30 minutes. After that, the cells were washed with serum-enriched medium for three times. Each group was incubated with or without IGFBP7 (100 ng/ml) prior to rosetting assay. P. falciparum line CS2 deficient of SBP1 [(SBP1-KO-CS2), which lacks P. falciparum erythrocyte membrane protein 1 (PFEMP1) on its IRBC surface] and its wild type (CS2-WT) counterpart were cultured as described. Their rosetting rates post-incubation with IGFBP7 at different concentrations were determined. P. falciparum clones NF54 VAR2CSA_WT and NF54_T934D (cannot express PfEMP1 variant VAR2CSA on IRBC surface^32) were cultivated. Experiments were conducted when parasite population reached late stages. For each parasite line, two conditions were applied; one was incubated with IGFBP7 (100 ng/ml) whereas the other one acted as IGFBP7-free control. Rosetting assay was conducted afterwards. Five replicates were conducted for each experiment setting. […]

[1] = system: cytoadhesive properties of infected erythrocytes; conditions: adjunct treatment candidate, phase II clinical trial; cited from earlier work
[2] = Albumax-supplemented medium with IGFBP7 100 ng/ml and TSP-1 10 ng/ml

| Substance | effect on rosetting rates of TSP-1 and VWF without IGFBP7 (P. falciparum) | TSP-1 concentration enough to optimally facilitate IGFBP7-mediated rosette-stimulation (P. falciparum; serum-free (Albumax-supplemented medium), IGFBP7 100 ng/ml, with VWF) | VWF concentration at which optimal increment attained (P. falciparum; [2]) | VWF concentration sufficient to significantly increase rosetting rates (P. falciparum; [2]) | effect of VWF by itself on rosetting (P. falciparum; VWF 1 IU/ml, no IGFBP7, 20% and 2% serum medium) | effect on pathology of patients [1] |
| --- | --- | --- | --- | --- | --- | --- |
| TSP-1: rhTSP-1 (thrombospondin-1), serum co-factor of IGFBP7-mediated rosetting | could not increase the rosetting rates | 10 ng/mL |  |  |  |  |
| VWF: Recombinant human VWF (rhVWF), serum co-factor of IGFBP7-mediated rosetting | could not increase the rosetting rates |  | 0.5 IU/ml | 0.125 IU/ml | did not stimulate rosetting |  |
| Curdlan sulfate |  |  |  |  |  | reduce the severe pathology development |
